The target of the assay is T1, human mAChR M4 (Homo sapiens, UniProt P08173).
T1 construct: expressed in transfected cells
T1 sequence (P08173 1-479): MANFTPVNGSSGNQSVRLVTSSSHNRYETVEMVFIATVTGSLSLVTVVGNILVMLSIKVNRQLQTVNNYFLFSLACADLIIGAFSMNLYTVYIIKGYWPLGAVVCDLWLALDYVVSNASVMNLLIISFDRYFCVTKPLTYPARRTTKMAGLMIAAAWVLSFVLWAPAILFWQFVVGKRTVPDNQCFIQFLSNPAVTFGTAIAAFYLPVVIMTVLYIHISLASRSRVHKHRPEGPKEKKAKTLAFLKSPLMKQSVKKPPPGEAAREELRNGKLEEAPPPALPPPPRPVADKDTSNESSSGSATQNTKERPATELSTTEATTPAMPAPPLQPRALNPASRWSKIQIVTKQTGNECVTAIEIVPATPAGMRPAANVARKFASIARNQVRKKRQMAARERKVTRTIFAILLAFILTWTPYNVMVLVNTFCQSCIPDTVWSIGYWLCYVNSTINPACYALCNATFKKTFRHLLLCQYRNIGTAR
Put plainly: mAChR M4 cell-based functional assay (calcium mobilization, CHO-K1 hM4-Gqi5 cells). Particulars: for Emax at 30 µM: CHO-K1, % ACh maximum at 30 μM, human M4; for EC50: positive allosteric modulator activity, increase in the EC20 acetylcholine response, CHO-K1 hM4-Gqi5 cells, read-out: Human M4 EC50. In a few lines: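 Fluorescent calcium read-out (Fluo-4 AM, FDSS, 1 Hz) in hM4-Gqi5 CHO-K1 cells, 11-point 1:3 compound series. Agonism scored on compound addition, PAM activity as increase of the 144 s EC20 acetylcholine response, antagonism as decrease of the 230 s EC80 response; four-parameter logistic fits give EC50 and Emax.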

Structures are written as SMILES.

By Emax is commonly meant the size of the effect at its maximum, as opposed to the concentration needed. Usually EC50 stands for the concentration giving half of the maximal effect.

Turning to `Cc1c(Cl)nc(C(F)(F)F)nc1N1CCc2ncc(-c3ccc(N(C)C)nc3)cc2C1` [compound 246, 5-(6-(6-chloro-5-methyl-2-(trifluoromethyl)pyrimidin-4-yl)-5,6,7,8-tetrahydro-1,6-naphthyridin-3-yl)-N,N-dimethylpyridin-2-amine], the Emax at 30 µM worked out at 19% and the 50% effective concentration (EC50) was determined as 8390 nM.
The matching figures for `Cc1c(C(=O)NCc2cccnc2)nnc(N2CCc3ncccc3C2)c1C` [compound 136, 6-(7,8-dihydro-5H-1,6-naphthyridin-6-yl)-4,5-dimethyl-N-(3-pyridylmethyl)pyridazine-3-carboxamide]: 88% and 1880 nM.
The matching figures for `Cc1cc(C(=O)Nc2ccncc2)cnc1N1CCc2ncc(C(F)(F)F)cc2C1` [Example 442, 5-methyl-N-(pyridin-4-yl)-6-(3-(trifluoromethyl)-7,8-dihydro-1,6-naphthyridin-6(5H)-yl)nicotinamide]: 96% and 424 nM.
The like results for `Cc1nc(C)c(C)c(N2CCc3ncc(-c4ccc(N5CCCC5)nc4)cc3C2)n1` [compound 231, 3-(6-(pyrrolidin-1-yl)pyridin-3-yl)-6-(2,5,6-trimethylpyrimidin-4-yl)-5,6,7,8-tetrahydro-1,6-naphthyridine] were, in that order, 63% and 668 nM.
In the case of `Cc1cc(C#N)cnc1N1CCc2ncc(-c3ccc(N(C)C)nc3)cc2C1` [Example 318, 6-(3-(6-(dimethylamino)pyridin-3-yl)-7,8-dihydro-1,6-naphthyridin-6(5H)-yl)-5-methylnicotinonitrile], the Emax at 30 µM is 74% and the EC50 was 470 nM.
`[2H]C1([2H])Cc2ncc(Nc3ccccc3F)cc2C([2H])([2H])N1c1nnc(C#N)cc1C` [Example 611, 6-(3-((2-fluorophenyl)amino)-7,8-dihydro-1,6-naphthyridin-6(5H)-yl-5,5,7,7-d4)-5-methylpyridazine-3-carbonitrile]: the Emax at 30 µM worked out at 86% and the EC50 turned out to be 8 nM.
The like results for `Cc1cc(C(=O)NCc2ccncc2)cnc1N1CCc2ncc(-c3cn(C)nc3C)cc2C1` [Example 482, 6-(3-(1,3-dimethyl-1H-pyrazol-4-yl)-7,8-dihydro-1,6-naphthyridin-6(5H)-yl)-5-methyl-N-(pyridin-4-ylmethyl)nicotinamide] were, in that order, 78% and 468 nM.
On to `Cc1nc(Cl)c(C)c(N2CCc3ncc(C(F)F)cc3C2)n1` [compound 215, 6-(6-chloro-2,5-dimethylpyrimidin-4-yl)-3-(difluoromethyl)-5,6,7,8-tetrahydro-1,6-naphthyridine], for which the EC50 came to 137 nM. Further, for the setting “CHO-K1”, the Emax came out at 93%.
For the compound `Cc1cnc2c(c1)CN(c1nnc(C(=O)NCc3ccncc3)c(C)c1C)CC2` [Example 486, 4,5-dimethyl-6-(3-methyl-7,8-dihydro-1,6-naphthyridin-6(5H)-yl)-N-(pyridin-4-ylmethyl)pyridazine-3-carboxamide], the maximal effect (Emax) at 30 µM stood at 97% and the EC50 came out at 286 nM.
As for `Cc1nc(NCC(C)(C)O)nc(N2CCc3ncc(Nc4ccnn4C)cc3C2)c1C` [compound 280, 1-((4,5-dimethyl-6-(3-((1-methyl-1H-pyrazol-5-yl)amino)-7,8-dihydro-1,6-naphthyridin-6(5/I)-yl)pyrimidin-2-yl)amino)-2-methylpropan-2-ol], the Emax at 30 µM stood at 105% and the 50% effective concentration (EC50) was 261 nM.
Regarding `Cc1cc(C(=O)NCc2ccncc2Cl)nnc1N1CCc2ncc(C(F)(F)F)cc2C1` [Example 497, N-((3-chloropyridin-4-yl)methyl)-5-methyl-6-(3-(trifluoromethyl)-7,8-dihydro-1,6-naphthyridin-6(5H)-yl)pyridazine-3-carboxamide], the maximum response (Emax) at 30 µM was 101% and the EC50 was found to be 64 nM.
The like results for `Cc1cc(C(=O)N2CC(c3cccnc3)C2)nnc1N1CCc2ncc(N3CCCn4nccc43)cc2C1` [Example 526, (6-(3-(6,7-dihydropyrazolo[1,5-a]pyrimidin-4(5H)-yl)-7,8-dihydro-1,6-naphthyridin-6(5H)-yl)-5-methylpyridazin-3-yl)(3-(pyridin-3-yl)azetidin-1-yl)methanone] were, in that order, 116% and 17 nM.
For `Cc1cc(C#N)nnc1N1CCc2ncc(N3CCCn4nc(C(C)(C)C)cc43)cc2C1` [Example 418, 6-(3-(2-(tert-butyl)-6,7-dihydropyrazolo[1,5-a]pyrimidin-4(5H)-yl)-7,8-dihydro-1,6-naphthyridin-6(5H)-yl)-5-methylpyridazine-3-carbonitrile], the Emax at 30 µM stood at 80% and the 50% effective concentration (EC50) was found to be 516 nM.
The matching figures for `COc1ccc(-c2cnc3c(c2)CN(c2nnc(C#N)c(C)c2C)CC3)cn1` [Example 299, 6-(3-(6-methoxypyridin-3-yl)-7,8-dihydro-1,6-naphthyridin-6(5H)-yl)-4,5-dimethylpyridazine-3-carbonitrile]: 64% and 178 nM.
The matching figures for `Cc1cc(C(=O)N2CCOCC2)nnc1N1CCc2ncc(CC(F)(F)F)cc2C1` [Example 587, (5-methyl-6-(3-(2,2,2-trifluoroethyl)-7,8-dihydro-1,6-naphthyridin-6(5/)-yl)pyridazin-3-yl)(morpholino)methanone]: 69% and 6540 nM.
The like results for `[2H]C1([2H])Cc2ncc(Nc3cc(C)ncc3F)cc2C([2H])([2H])N1c1ncc(C#N)cc1C` [Example 601, 6-(3-((5-fluoro-2-methylpyridin-4-yl)amino)-7,8-dihydro-1,6-naphthyridin-6(5H)-yl-5,5,7,7-d4)-5-methylnicotinonitrile] were, in that order, 95% and 7 nM.
Turning to `Cc1c(C#N)nnc(N2CCc3ncc(-c4ccc(N5CC(C(C)(C)O)C5)nc4)cc3C2)c1C` [Example 329, 6-(3-(6-(3-(2-hydroxypropan-2-yl)azetidin-1-yl)pyridin-3-yl)-7,8-dihydro-1,6-naphthyridin-6(5H)-yl)-4,5-dimethylpyridazine-3-carbonitrile], the maximum response (Emax) at 30 µM is 66% and the 50% effective concentration (EC50) was 554 nM.
Consider `[2H]C1([2H])Cc2ncc(Nc3ccncc3F)cc2C([2H])([2H])N1c1nnc(C#N)cc1C` [Example 606, 6-(3-((3-fluoropyridin-4-yl)amino)-7,8-dihydro-1,6-naphthyridin-6(5H)-yl-5,5,7,7-d4)-5-methylpyridazine-3-carbonitrile], for which the maximum response (Emax) at 30 µM was 90% and the EC50 came to 10 nM.
The like results for `[2H]C([2H])([2H])c1cnc2c(c1)CN(c1nnc(C(=O)N3CC(F)(F)C3)cc1C)CC2` [Example 576, (3,3-difluoroazetidin-1-yl)(5-methyl-6-(3-(methyl-d3)-7,8-dihydro-1,6-naphthyridin-6(5H)-yl)pyridazin-3-yl)methanone] were, in that order, 71% and 41 nM.
The like results for `Cc1cc(C#N)cnc1N1CCc2ncc(Nc3cccc(C(F)(F)F)c3F)cc2C1` [compound 113, 6-[3-[2-fluoro-3-(trifluoromethyl)anilino]-7,8-dihydro-5H-1,6-naphthyridin-6-yl]-5-methyl-pyridine-3-carbonitrile] were, in that order, 98% and 1450 nM.
For the compound `Cc1nc(C)c(C)c(N2CCc3ncc(Oc4cc(F)ccc4F)cc3C2)n1` [compound 263, 3-(2,5-difluorophenoxy)-6-(2,5,6-trimethylpyrimidin-4-yl)-5,6,7,8-tetrahydro-1,6-naphthyridine], the Emax at 30 µM is 90% and the concentration for a half-maximal effect (EC50) was 145 nM.
The matching figures for `Cc1cc(C(=O)N2CC3(COC3)C2)nnc1N1CCc2ncc(-n3cccn3)cc2C1` [Example 571, (6-(3-(1H-pyrazol-1-yl)-7,8-dihydro-1,6-naphthyridin-6(5H)-yl)-5-methylpyridazin-3-yl)(2-oxa-6-azaspiro[3.3]heptan-6-yl)methanone]: 85% and 213 nM.
The matching figures for `Cc1cc(C#N)cnc1N1CCc2ncc(-c3cnn(CC(F)(F)F)c3)cc2C1` [compound 100, 5-methyl-6-[3-[1-(2,2,2-trifluoroethyl)pyrazol-4-yl]-7,8-dihydro-5H-1,6-naphthyridin-6-yl]pyridine-3-carbonitrile]: 80% and 188 nM.
On to `Cc1cc(C(=O)N(C)C)nnc1N1CCc2ncc(N3CCCn4nccc43)cc2C1` [Example 556, 6-(3-(6,7-dihydropyrazolo[1,5-a]pyrimidin-4(5H)-yl)-7,8-dihydro-1,6-naphthyridin-6(5H)-yl)-N,N,5-trimethylpyridazine-3-carboxamide], for which the Emax at 30 µM was 87% and the half-maximal effective concentration (EC50) worked out at 1460 nM.
The like results for `Cc1c(C#N)nnc(N2CCc3ncc(-c4cc(F)cnc4Cl)cc3C2)c1C` [compound 53, 6-[3-(2-chloro-5-fluoro-3-pyridyl)-7,8-dihydro-5H-1,6-naphthyridin-6-yl]-4,5-dimethyl-pyridazine-3-carbonitrile] were, in that order, 70% and 479 nM.

These data come from patent publication US20250230155A1 (Vanderbilt University, priority 2021, published 2025).
